The results in this text go back to patent US10131669B2, “Pyrazolopyrimidine compounds” (Pfizer Inc., priority 2014, dated 2018).

What all share (assay type): biochemical
For assay [1], the target named is T1, Human PDE4A3 (Homo sapiens, UniProt P27815).
T1 construct: His6 (N); FLAG (C); made in house; host or cells: insect cells (baculovirus, pFastBac)
The assay can be described thus: PDE4A3 Scintillation Proximity Assay (SPA), inhibition of enzyme activity. The conditions noted are these: geometric mean of 2-7 determinations unless otherwise indicated (b: ≥8 determinations; c: single determination), 1 μM cAMP, 30 min at 25° C., read-out: Human PDE4A FL. An excerpt:
(§1) Human PDE4A3 coding sequence (amino acids 2 to 825 from the sequence with accession number NP_001104779) was cloned into the baculovirus expression vector pFastBac (Invitrogen) engineered to include an N-terminal His6 affinity tag and a c-terminal FLAG affinity tag to aid in purification. The recombinant Bacmid was isolated and used to transfect insect cells to generate a viral stock. To generate cell paste for purification, insect cells were infected with the virus stock and cells were harvested 72 hours after infection. Insect cell paste was lysed and after centrifugation, the supernatant was batch bound to Ni-NTA agarose (GE Healthcare) and eluted with 250 mM imidazole. This eluate was diluted with FLAG buffer (50 mM Tris HCL pH 7.5, 100 mM NaCl, 5% Glycerol, 1 mM TCEP with protease inhibitors) and batch bound to ant-FLAG M2 agarose (Sigma) overnight at 4° C. The agarose was packed into a column, washed with buffer and eluted with buffer containing elute using 250 ug/ml Flag-peptide. Fractions were analyzed using SDS-PAGE Coomassie blue staining and pooled based on purity. Pooled fractions were chromatographed on a S200 120 ml column (GE Healthcare) in 50 mM Tris HCL pH 7.5, 150 mM NaCl, 10% Glycerol, 2 mM TCEP with protease inhibitors. PDE4A3 fractions were analyzed by SDS-PAGE Coomassie blue staining, pooled based on purity, dialyzed against 50 mM Tris HCL pH 7.5, 100 mM NaCl, 20% Glycerol, 2 mM TCEP, frozen and stored at −80° C.
(§2) The PDE4A3, PDE4B1, PDE4C1 and PDE4D3 assays use the Scintillation Proximity Assay (SPA) technology to measure the inhibition of human recombinant […], PDE4C1, and PDE4D3 enzyme activity by compounds in vitro. The PDE4A1, PDE4B3, PDE4C1, and PDE4D3 assays are run in parallel using identical parameters, except for the concentration of enzyme (80 pM PDE4A3, 40 pM PDE4B3, 40 pM PDE4C1 and 10 pM PDE4D). The assays are performed in a 384-well format with 50 uL assay buffer (50 mM TRIS pH7.5; 1.3 mM MgCl2; 0.01% Brij) containing enough PDE4A3, PDE4B1, PDE4C1, and PDE4D to convert ˜20% of substrate (1 μM cAMP consisting of 20 nM 3H-cAMP+[…] cold cAMP) and a range of inhibitors. Reactions are incubated for 30 min at 25° C. The addition of 20 uL of 8 mg/ml yitrium silicate SPA beads (Perkin Elmer) stops the reaction. The plates are sealed (TopSeal, Perkin Elmer) and the beads are allowed to settle for 8 hrs, after which they are read on the Trilux Microbeta overnight.

For assay [2], the target named is T2, Human PDE4C1 (Homo sapiens, UniProt Q08493).
T2 construct: His6 (N); FLAG (C); made in house; host or cells: insect cells (baculovirus, pFastBac)
T2 sequence (Q08493 2-712): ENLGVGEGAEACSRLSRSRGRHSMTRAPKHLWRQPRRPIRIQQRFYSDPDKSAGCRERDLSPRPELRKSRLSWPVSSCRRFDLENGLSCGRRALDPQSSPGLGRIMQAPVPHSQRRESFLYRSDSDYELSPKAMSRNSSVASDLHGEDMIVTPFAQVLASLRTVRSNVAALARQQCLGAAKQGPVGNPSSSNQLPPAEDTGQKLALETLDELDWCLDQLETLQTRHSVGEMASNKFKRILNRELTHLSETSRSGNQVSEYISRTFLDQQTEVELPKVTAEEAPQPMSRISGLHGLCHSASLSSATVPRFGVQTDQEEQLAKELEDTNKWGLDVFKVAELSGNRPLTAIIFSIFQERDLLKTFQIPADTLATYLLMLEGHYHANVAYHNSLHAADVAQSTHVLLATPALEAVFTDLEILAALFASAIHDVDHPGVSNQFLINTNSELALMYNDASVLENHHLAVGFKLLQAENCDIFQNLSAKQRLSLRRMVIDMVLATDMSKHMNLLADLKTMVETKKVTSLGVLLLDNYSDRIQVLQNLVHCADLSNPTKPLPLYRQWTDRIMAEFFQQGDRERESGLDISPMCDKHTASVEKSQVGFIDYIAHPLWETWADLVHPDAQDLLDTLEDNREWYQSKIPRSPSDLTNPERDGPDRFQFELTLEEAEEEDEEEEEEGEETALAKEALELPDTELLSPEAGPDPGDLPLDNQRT
The assay can be described thus: PDE4C1 Scintillation Proximity Assay (SPA), inhibition of enzyme activity. The conditions noted are these: geometric mean of 2-7 determinations unless otherwise indicated (b: ≥8 determinations; c: single determination), 1 μM cAMP, 30 min at 25° C., read-out: Human PDE4C FL. As to the method:
as §1, with “The” for “Human PDE4A3 coding sequence (amino acids 2 to 825 from the sequence with accession number NP_001104779) was cloned into the baculovirus expression vector pFastBac (Invitrogen) engineered to include an N-terminal His6 affinity tag and a c-terminal FLAG affinity tag to aid in purification. The”, “PDE4C1” for “PDE4A3”
as §2

The target of assay [3] is T3, human PDE4D3 (Homo sapiens, UniProt Q08499).
T3 construct: His6 (C); made in house; host or cells: insect cells (baculovirus, pFastBac)
T3 sequence (Q08499 186-808): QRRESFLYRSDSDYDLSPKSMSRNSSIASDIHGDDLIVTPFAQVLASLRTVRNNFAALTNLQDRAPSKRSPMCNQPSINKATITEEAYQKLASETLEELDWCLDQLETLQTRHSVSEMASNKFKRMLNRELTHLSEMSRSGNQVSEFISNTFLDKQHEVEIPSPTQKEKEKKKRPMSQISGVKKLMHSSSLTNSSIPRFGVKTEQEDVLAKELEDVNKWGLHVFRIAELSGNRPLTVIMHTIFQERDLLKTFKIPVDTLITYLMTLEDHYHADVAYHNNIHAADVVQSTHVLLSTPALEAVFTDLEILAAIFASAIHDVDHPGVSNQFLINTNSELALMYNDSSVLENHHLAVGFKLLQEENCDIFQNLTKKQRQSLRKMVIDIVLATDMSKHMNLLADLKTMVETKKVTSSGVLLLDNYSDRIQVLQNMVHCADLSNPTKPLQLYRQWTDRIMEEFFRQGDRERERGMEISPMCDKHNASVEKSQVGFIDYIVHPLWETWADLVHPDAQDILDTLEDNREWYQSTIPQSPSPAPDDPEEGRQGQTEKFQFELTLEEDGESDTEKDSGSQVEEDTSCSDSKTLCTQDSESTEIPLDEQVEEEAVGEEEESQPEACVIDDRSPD
Briefly: PDE4D3 Scintillation Proximity Assay (SPA), inhibition of enzyme activity. How it is done: The recombinant Bacmid was isolated and used to transfect insect cells to generate a viral stock. To generate cell paste for purification, insect cells were infected and cells were harvested 72 hours after infection. Insect cell paste was lysed and after centrifugation, the supernatant was chromatographed on Ni-NTA agarose (Qiagen) as described in Seeger, T. F. et al., Brain Research 985 (2003) 113-126. Ni-NTA agarose eluting fractions containing PDE4 were pooled, diluted with Q Buffer A (50 mM Tris HCl pH 8, 4% glycerol, 100 mM NaCl, 1 mM TCEP, Protease inhibitors EDTA-free (Roche)) to reduce NaCl to ˜200 mM, and loaded on a Q Sepharose (GE Healthcare) column. After washing with Q buffer A to baseline, PDE4D was eluted with a gradient from 10% to 60% of Buffer B (50 mM Tris HCl pH 8, 1 M NaCl, 4% glycerol, 1 mM TCEP). PDE4D fractions were analyzed by SDS-PAGE Coomassie blue staining, pooled based on purity, frozen and stored at −80° C.
as §2
Background: In a scintillation proximity assay essentially only radioactivity close to the scintillant gives light.

Assay [4] has as its target T4, Human PDE4B1 (Homo sapiens, UniProt Q07343, S133E/S654A/S659A/S661A).
T4 construct: His6 (N); thrombin cleavage site (N); made in house; host or cells: insect cells (baculovirus, pFastBac)
Briefly: PDE4B1 Scintillation Proximity Assay (SPA), inhibition of enzyme activity. How it is done:
The recombinant Bacmid was isolated and used to transfect insect cells to generate a viral stock. To generate cell paste for purification, insect cells were infected with the virus stock and cells were harvested 72 hours after infection as described in Seeger, T. F. et al., Brain Research 985 (2003) 113-126. Insect cell paste was lysed and after centrifugation, the supernatant was chromatographed on Ni-NTA agarose (Qiagen) as described in Seeger, T. F. et al., Brain Research 985 (2003) 113-126. Ni-NTA agarose eluting fractions containing PDE4 were pooled, diluted with Q buffer A (20 mM Tris HCl pH 8, 5% glycerol, 1 mM TCEP) to reduce NaCl to ˜100 mM and loaded on a Source 15Q (GE Healthcare) column. After washing with Q buffer A/10% buffer B to baseline, PDE4D was eluted with a gradient from 10% to 60% of Buffer B (20 mM Tris HCl pH 8, 1 M NaCl, 5% glycerol, 1 mM TCEP). PDE4D fractions were analyzed by SDS-PAGE Coomassie blue staining, pooled based on purity, frozen and stored at −80° C.
as §2

Setting [5] is: geometric mean of 2-7 determinations unless otherwise indicated (b: ≥8 determinations; c: single determination), 1 μM cAMP, 30 min at 25° C., read-out: Human PDE4D FL, IC50.
[6] abbreviates: geometric mean of 2-7 determinations unless otherwise indicated (b: ≥8 determinations; c: single determination), 1 μM cAMP, 30 min at 25° C., read-out: Human PDE4B FL, IC50.

Each structure is given as a SMILES string. Where a name gives a salt, the structure may show the parent alone. Read-outs that look alike come from different tables or passages of the source. Bounds are passed on as bounds.

T1 sequence (P27815 2-825 isoform P27815-6): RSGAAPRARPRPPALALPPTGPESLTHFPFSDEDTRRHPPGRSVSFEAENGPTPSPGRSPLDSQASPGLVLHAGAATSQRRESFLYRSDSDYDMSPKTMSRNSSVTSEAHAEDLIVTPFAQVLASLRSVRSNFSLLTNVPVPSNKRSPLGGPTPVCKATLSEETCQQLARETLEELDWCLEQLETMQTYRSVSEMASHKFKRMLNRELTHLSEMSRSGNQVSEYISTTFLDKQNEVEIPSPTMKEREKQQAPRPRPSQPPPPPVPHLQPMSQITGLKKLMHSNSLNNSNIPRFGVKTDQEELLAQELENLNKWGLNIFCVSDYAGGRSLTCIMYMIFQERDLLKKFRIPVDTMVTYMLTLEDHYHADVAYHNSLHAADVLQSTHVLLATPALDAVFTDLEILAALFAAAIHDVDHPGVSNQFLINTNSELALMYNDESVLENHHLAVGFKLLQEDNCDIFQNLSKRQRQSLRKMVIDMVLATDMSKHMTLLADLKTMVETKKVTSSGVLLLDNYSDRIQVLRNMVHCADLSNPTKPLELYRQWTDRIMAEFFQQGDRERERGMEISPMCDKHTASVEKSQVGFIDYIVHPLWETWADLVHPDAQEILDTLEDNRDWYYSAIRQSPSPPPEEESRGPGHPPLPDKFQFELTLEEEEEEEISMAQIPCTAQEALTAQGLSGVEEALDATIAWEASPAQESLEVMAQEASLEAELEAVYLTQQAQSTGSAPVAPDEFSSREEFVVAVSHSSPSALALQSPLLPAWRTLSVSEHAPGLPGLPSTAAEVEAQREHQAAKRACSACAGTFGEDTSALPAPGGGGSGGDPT
T4 sequence (Q07343 122-736 S133E/S654A/S659A/S661A): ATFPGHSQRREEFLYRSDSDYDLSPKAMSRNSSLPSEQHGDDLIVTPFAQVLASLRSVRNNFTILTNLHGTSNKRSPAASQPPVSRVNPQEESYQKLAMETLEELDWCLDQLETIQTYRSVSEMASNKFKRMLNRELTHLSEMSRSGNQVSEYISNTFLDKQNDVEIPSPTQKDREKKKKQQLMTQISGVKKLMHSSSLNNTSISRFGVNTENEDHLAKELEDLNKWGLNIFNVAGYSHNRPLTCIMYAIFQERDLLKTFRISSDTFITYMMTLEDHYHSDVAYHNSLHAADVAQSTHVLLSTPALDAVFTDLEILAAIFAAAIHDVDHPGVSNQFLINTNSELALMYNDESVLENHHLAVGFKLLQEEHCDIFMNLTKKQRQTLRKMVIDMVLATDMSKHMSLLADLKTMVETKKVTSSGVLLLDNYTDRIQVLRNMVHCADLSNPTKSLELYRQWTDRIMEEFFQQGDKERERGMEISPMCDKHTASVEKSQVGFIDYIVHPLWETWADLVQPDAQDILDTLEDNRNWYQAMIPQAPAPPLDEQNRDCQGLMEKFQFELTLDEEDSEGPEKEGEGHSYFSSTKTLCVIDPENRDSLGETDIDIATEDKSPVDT

Take `O=C(NC1CC1)c1nn2cccnc2c1-c1ccc(Cl)cc1F` [Example 14, 3-(4-chloro-2-fluorophenyl)-N-cyclopropylpyrazolo[1,5-a]pyrimidine-2-carboxamide]: the IC50 in assay [1] is 51.8 nM; in assay [2], 83.3 nM; in assay [3] (setting [5]) it was above 16700 nM; in assay [4] (setting [6]) it was 179 nM.

For `N#Cc1ccc(-c2c(C(=O)NC3CC3)nn3cccnc23)cn1` [Example 44, 3-(6-cyanopyridin-3-yl)-N-cyclopropylpyrazolo[1,5-a]pyrimidine-2-carboxamide], the IC50 in assay [1] was 192 nM; in assay [2], 898 nM; in assay [3] (setting [5]), above 11900 nM; in assay [4] (setting [6]) it was 358 nM.

For `O=C(NC1CC1)c1nn2cc(F)cnc2c1-c1ccc(Cl)c(F)c1F` [Example 58, 3-(4-chloro-2,3-difluorophenyl)-N-cyclopropyl-6-fluoropyrazolo[1,5-a]pyrimidine-2-carboxamide], the IC50 was determined as 4.04 nM in assay [1], 9 nM in assay [2], 430 nM in assay [3] (setting [5]) and 20.1 nM in assay [4] (setting [6]).

As for `O=C(Nc1ncccn1)c1nn2cccnc2c1-c1ccc(Cl)cc1` [Example 8, 3-(4-Chlorophenyl)-N-(pyrimidin-2-yl)pyrazolo[1,5-a]pyrimidine-2-carboxamide], the IC50 in assay [1] is 190 nM; in assay [2] it was 965 nM; in assay [3] (setting [5]), above 25200 nM; in assay [4] (setting [6]), 1090 nM.

Regarding `O=C(c1nn2cc(F)cnc2c1-c1ccc(Cl)cc1)N1CCC1` [Example 9, Azetidin-1-yl[3-(4-chlorophenyl)-6-fluoropyrazolo[1,5-a]pyrimidin-2-yl]methanone, Formate Salt], the IC50 in assay [1] stood at 16.7 nM; in assay [2] it was 55.3 nM; in assay [3], 3710 nM; in assay [4], 34.4 nM.

In the case of `O=C(NC1CC1)c1nn2cc(F)cnc2c1-c1cc(F)c(Cl)c(F)c1` [Example 57, 3-(4-chloro-3,5-difluorophenyl)-N-cyclopropyl-6-fluoropyrazolo[1,5-a]pyrimidine-2-carboxamide], the IC50 came out at 0.461 nM in assay [1], 2.83 nM in assay [2], 92.1 nM in assay [3] (setting [5]) and 2.71 nM in assay [4] (setting [6]).

With `O=C(NC1CC1)c1nn2cc(F)cnc2c1-c1ccc(Cl)cc1` [Example 7, 3-(4-Chlorophenyl)-N-cyclopropyl-6-fluoropyrazolo[1,5-a]pyrimidine-2-carboxamide], the IC50 worked out at 8.77 nM in assay [1], 23.4 nM in assay [2], 1080 nM in assay [3] (setting [5]) and 16.1 nM in assay [4] (setting [6]).

Regarding `O=C(c1nn2cc(F)cnc2c1-c1ccc(Cl)c(F)c1)N1CCC1` [Example 66, azetidin-1-yl[3-(4-chloro-3-fluorophenyl)-6-fluoropyrazolo[1,5-a]pyrimidin-2-yl]methanone], the IC50 was determined as 2 nM in assay [1], 9 nM in assay [2], 79 nM in assay [3] (setting [5]) and 7 nM in assay [4] (setting [6]).

`CCNC(=O)c1nn2cccnc2c1-c1ccnc(OC(F)F)c1` [Example 50, 3-[2-(difluoromethoxy)pyridin-4-yl]-N-ethylpyrazolo[1,5-a]pyrimidine-2-carboxamide]: the IC50 was 17.7 nM in assay [1], 70.8 nM in assay [2], above 4870 nM in assay [3] (setting [5]) and 48.3 nM in assay [4] (setting [6]).

As to `O=C(c1nn2cccnc2c1-c1cccc(Cl)c1)N1CCC1` [Example 48, azetidin-1-yl[3-(3-chlorophenyl)pyrazolo[1,5-a]pyrimidin-2-yl]methanone], the IC50 in assay [1] was 167 nM; in assay [2], 76.4 nM; in assay [3] (setting [5]), above 16000 nM; in assay [4] (setting [6]), 236 nM.

Turning to `CC1CC1NC(=O)c1nn2cccnc2c1-c1ccc(Cl)cc1` (centres unmarked) [Example 34, 3-(4-chlorophenyl)-N-(2-methylcyclopropyl)pyrazolo[1,5-a]pyrimidine-2-carboxamide], the IC50 in assay [1] was 120 nM; in assay [2], 449 nM; in assay [3] (setting [5]) it was above 12300 nM; in assay [4] (setting [6]) it was 138 nM.

As to `O=C(c1nn2cccnc2c1-c1ccc(Cl)c(F)c1)N1CCC1` [Example 12, azetidin-1-yl[3-(4-chloro-3-fluorophenyl)pyrazolo[1,5-a]pyrimidin-2-yl]methanone], the IC50 in assay [1] was 22 nM; in assay [2], 48 nM; in assay [3] (setting [5]) it was 993 nM; in assay [4] (setting [6]), 6.06 nM.

For `O=C(NC1CC1)c1nn2cc(F)cnc2c1-c1cc(F)c(Cl)cc1F` [Example 72, 3-(4-chloro-2,5-difluorophenyl)-N-cyclopropyl-6-fluoropyrazolo[1,5-a]pyrimidine-2-carboxamide], the IC50 in assay [1] turned out to be 0.77 nM; in assay [2] it was 5.18 nM; in assay [3] (setting [5]), 43 nM; in assay [4] (setting [6]), 3.02 nM.

As to `N#Cc1cc(F)c(-c2c(C(=O)NC3CC3)nn3cccnc23)cc1F` [Example 45, 3-(4-cyano-2,5-difluorophenyl)-N-cyclopropylpyrazolo[1,5-a]pyrimidine-2-carboxamide], the IC50 in assay [1] came out at 22 nM; in assay [2], 42.1 nM; in assay [3] (setting [5]), 1320 nM; in assay [4] (setting [6]), 51 nM.
